Values quoted from earlier work in patent US20080045583A1, “STABLE LEVETIRACETAM COMPOSITIONS AND METHODS” (priority 2006, published 2008).

Settings: oral, with or without food

CC[C@@H](C(N)=O)N1CCCC1=O [Levetiracetam, (−)-(S)-α-ethyl-2-oxo-1-pyrrolidine acetamide]
bioavailability, effect of food: not affected by food
